Data on 22 molecules can be found in US8871738B2, “Fused bicyclic oxazolidinone CETP inhibitor” (Merck Sharp & Dohme Corp., priority 2011, dated 2014).

By IC50 is commonly meant the concentration at which inhibition is half-maximal.

Molecules are shown by their SMILES.

For the test, the target named is endogenous CETP from serum (Homo sapiens (Human), UniProt P11597). Briefly: RTA assay in 95% human serum (CETP-catalyzed CE and TG transfer, endogenous CETP). The format is biochemical. Particulars: RTA assay in 95% human serum; read-out: IC50.
Sequence of endogenous CETP from serum (P11597 18-493 limits assumed): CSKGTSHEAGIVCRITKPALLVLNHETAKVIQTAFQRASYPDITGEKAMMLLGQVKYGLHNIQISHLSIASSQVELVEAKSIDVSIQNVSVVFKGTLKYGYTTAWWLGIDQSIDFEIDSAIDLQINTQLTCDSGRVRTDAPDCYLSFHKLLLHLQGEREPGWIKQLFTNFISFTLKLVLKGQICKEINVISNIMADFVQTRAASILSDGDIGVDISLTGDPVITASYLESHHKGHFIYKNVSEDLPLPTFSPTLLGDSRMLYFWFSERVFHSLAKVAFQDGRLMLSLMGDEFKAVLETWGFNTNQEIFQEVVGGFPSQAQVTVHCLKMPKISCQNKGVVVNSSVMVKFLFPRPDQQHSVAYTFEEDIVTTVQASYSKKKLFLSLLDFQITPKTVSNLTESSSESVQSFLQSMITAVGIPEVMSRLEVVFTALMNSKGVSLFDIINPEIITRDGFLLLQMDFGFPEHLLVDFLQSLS
Regarding `O=C1O[C@H](c2cc(C(F)(F)F)cc(C(F)(F)F)c2)[C@@H]2CC[C@@H](c3cc(C(F)(F)F)ccc3-c3ccccc3Cl)N12` [Example 15, (1R,5S,7aS)-1-[3,5-bis(trifluoromethyl)phenyl]-5-[2′-chloro-4-(trifluoromethyl)biphenyl-2-yl]tetrahydro-1H-pyrrolo[1,2-c][1,3]oxazol-3-one], the half-maximal inhibitory concentration (IC50) was 453 nM.

For the molecule `Cc1cocc1-c1ccc(C(F)(F)F)cc1[C@@H]1CC[C@H]2[C@@H](c3cc(C(F)(F)F)cc(C(F)(F)F)c3)OC(=O)N12` [Example 16, (1R,5S,7aS)-1-[3,5-bis(trifluoromethyl)phenyl]-5-[2-(4-methylfuran-3-yl)-5-(trifluoromethyl)phenyl]tetrahydro-1H-pyrrolo[1,2-c][1,3]oxazol-3-one], the IC50 was found to be 343 nM. Turning to `O=C1O[C@H](c2cc(C(F)(F)F)cc(C(F)(F)F)c2)[C@@H]2CC[C@@H](c3cc(C(F)(F)F)ccc3C3=CCCCC3)N12` [Example 17, (1R,5S,7aS)-1-[3,5-bis(trifluoromethyl)phenyl]-5-[2-cyclohex-1-en-1-yl-5-(trifluoromethyl)phenyl]tetrahydro-1H-pyrrolo[1,2-c][1,3]oxazol-3-one], the IC50 is 73.6 nM. The same measure for `O=C1O[C@H](c2cc(C(F)(F)F)cc(C(F)(F)F)c2)[C@@H]2CC[C@@H](c3cc(C(F)(F)F)ccc3-c3ccsc3)N12` [Example 18, (1R,5S,7aS)-1-[3,5-bis(trifluoromethyl)phenyl]-5-[2-thiophen-3-yl-5-(trifluoromethyl)phenyl]tetrahydro-1H-pyrrolo[1,2-c][1,3]oxazol-3-one]: 103 nM; for `COc1ccc(F)cc1-c1ccc(C(F)(F)F)cc1[C@@H]1CC[C@H]2[C@@H](c3cc(C(F)(F)F)cc(C(F)(F)F)c3)OC(=O)N12` [Example 19, (1R,5S,7aS)-1-[3,5-bis(trifluoromethyl)phenyl]-5-[5′-fluoro-2′-methoxy-4-(trifluoromethyl)biphenyl-2-yl]tetrahydro-1H-pyrrolo[1,2-c][1,3]oxazol-3-one]: 166 nM; for `COc1ncccc1-c1ccc(C(F)(F)F)cc1[C@@H]1CC[C@H]2[C@@H](c3cc(C(F)(F)F)cc(C(F)(F)F)c3)OC(=O)N12` [Example 21, (1R,5S,7aS)-1-[3,5-bis(trifluoromethyl)phenyl]-5-[2-(2-methoxypyridin-3-yl)-5-(trifluoromethyl)phenyl]tetrahydro-1H-pyrrolo[1,2-c][1,3]oxazol-3-one]: 316 nM. The result for `O=C1O[C@H](c2cc(C(F)(F)F)cc(C(F)(F)F)c2)[C@@H]2CC[C@@H](c3cc(C(F)(F)F)ccc3C3=CCCC3)N12` [Example 22, (1R,5S,7aS)-1-[3,5-bis(trifluoromethyl)phenyl]-5-[2-cyclopent-1-en-1-yl-5-(trifluoromethyl)phenyl]tetrahydro-1H-pyrrolo[1,2-c][1,3]oxazol-3-one] reads 56.6 nM; that for `O=C1O[C@H](c2cc(C(F)(F)F)cc(C(F)(F)F)c2)[C@@H]2CC[C@@H](c3cc(C(F)(F)F)ccc3-c3cc(Cl)ccc3F)N12` [Example 23, (1R,5S,7aS)-1-[3,5-bis(trifluoromethyl)phenyl]-5-[5′-chloro-2′-fluoro-4-(trifluoromethyl)biphenyl-2-yl]tetrahydro-1H-pyrrolo[1,2-c][1,3]oxazol-3-one], 188 nM. The same measure for `Cc1cscc1-c1ccc(C(F)(F)F)cc1[C@@H]1CC[C@H]2[C@@H](c3cc(C(F)(F)F)cc(C(F)(F)F)c3)OC(=O)N12` [Example 24, (1R,5S,7aS)-1-[3,5-bis(trifluoromethyl)phenyl]-5-[2-(4-methylthiophen-3-yl)-5-(trifluoromethyl)phenyl]tetrahydro-1H-pyrrolo[1,2-c][1,3]oxazol-3-one]: 122 nM; for `O=C1O[C@H](c2cc(C(F)(F)F)cc(C(F)(F)F)c2)[C@@H]2CC[C@@H](c3cc(C(F)(F)F)ccc3-c3cc(F)ccc3F)N12` [Example 25, (1R,5S,7aS)-1-[3,5-bis(trifluoromethyl)phenyl]-5-[2′,5′-difluoro-4-(trifluoromethyl)biphenyl-2-yl]tetrahydro-1H-pyrrolo[1,2-c][1,3]oxazol-3-one]: 104 nM; for `Cc1ccc(Cl)cc1-c1ccc(C(F)(F)F)cc1[C@@H]1CC[C@H]2[C@@H](c3cc(C(F)(F)F)cc(C(F)(F)F)c3)OC(=O)N12` [Example 26, (1R,5S,7aS)-1-[3,5-bis(trifluoromethyl)phenyl]-5-[5′-chloro-2′-methyl-4-(trifluoromethyl)biphenyl-2-yl]tetrahydro-1H-pyrrolo[1,2-c][1,3]oxazol-3-one]: 1220 nM. Regarding `COc1cc(F)c(-c2ccc(C(=O)O)cc2C)cc1-c1ccc(C(F)(F)F)cc1[C@@H]1CC[C@H]2[C@@H](c3cc(C)cc(C(F)(F)F)c3)OC(=O)N12` [Example 29, 6′-fluoro-4′-methoxy-2-methyl-2″- {(1R,5S,7aS)-1-[3-methyl-5-(trifluoromethyl)phenyl]-3-oxotetrahydro-1H-pyrrolo[1,2-c][1,3]oxazol-5-yl}-4″- (trifluoromethyl)-1,1′:3′,1″- terphenyl-4-carboxylic acid], the IC50 stood at 44.6 nM.

For `COc1ccc(-c2ccc(C(=O)O)cc2C)cc1-c1ccc(F)cc1[C@@H]1CC[C@H]2[C@@H](c3cc(C(F)(F)F)cc(C(F)(F)F)c3)OC(=O)N12` [Example 34, 2″-{(1R,5S,7aS)-1-[3,5-bis(trifluoromethyl)phenyl]-3-oxotetrahydro-1H-pyrrolo[1,2-c][1,3]oxazol-5-yl}-4″-fluoro-4′-methoxy-2-methyl-1,1′:3′,1″- terphenyl-4-carboxylic acid], the IC50 amounted to 229 nM. The same measure for `COc1ccc(-c2cnc(C(=O)O)cc2C)cc1-c1ccc(F)cc1[C@@H]1CC[C@H]2[C@@H](c3cc(C(F)(F)F)cc(C(F)(F)F)c3)OC(=O)N12` [Example 38, 5-(2′-{(1R,5S,7aS)-1-[3,5-bis(trifluoromethyl)phenyl}-3-oxotetrahydro-1H-pyrrolo[1,2-c][1,3]oxazol-5-yl}-4′-fluoro-6-methxoybiphenyl-3-yl)-4-methylpyridine-2-carboxylic acid]: 1740 nM; for `COc1cc(F)c(C(C)C)cc1-c1ccc(C(F)(F)F)cc1[C@@H]1CCC[C@H]2[C@@H](c3cc(C(F)(F)F)cc(C(F)(F)F)c3)OC(=O)N12` [Example 43, (1R,5S,8aS)-1-[3,5-bis(trifluoromethyl)phenyl]-5-[4′-fluoro-2′-methoxy-5′-(1-methylethyl)-4-(trifluoromethyl)biphenyl-2-yl]hexahydro[1,3]oxazolo[3,4-a]pyridin-3-one]: 1210 nM. Consider `COc1cc(F)c(-c2ccc(C(=O)O)cc2C)cc1-c1ccc(C(F)(F)F)cc1[C@@H]1CCC[C@H]2[C@@H](c3cc(C(F)(F)F)cc(C(F)(F)F)c3)OC(=O)N12` [Example 44, 2″-{(1R,5S,8aS)-1-[3,5-bis(trifluoromethyl)phenyl]-3-oxohexahydro[1,3]oxazolo[3,4-a]pyridin-5-yl}-6′-fluoro-4′-methoxy-2-methyl-4″- (trifluoromethyl)-1,1′:3′,1″- terphenyl-4-carboxylic acid], for which the IC50 came to 718 nM. `COc1ncc(C(C)C)cc1-c1ccc(C(F)(F)F)cc1[C@@H]1CC[C@H]2[C@@H](c3cc(C(F)(F)F)cc(C(F)(F)F)c3)OC(=O)N12` [Example 45, (1R,5S,7aS)-1-[3,5-bis(trifluoromethyl)phenyl]-5-{2-[2-methoxy-5-(1-methylethyl)pyridin-3-yl]-5-(trifluoromethyl)phenyl}tetrahydro-1H-pyrrolo[1,2-c][1,3]oxazol-3-one]: the IC50 turned out to be 44.7 nM. On to `COc1cc(F)c(CCC(=O)O)cc1-c1ccc(C(F)(F)F)cc1[C@@H]1CCC[C@H]2[C@@H](c3cc(C(F)(F)F)cc(C(F)(F)F)c3)OC(=O)N12` [Example 46, 3-[2′-{(1R,5S,8aS)-1-[3,5-bis(trifluoromethyl)phenyl]-3-oxohexahydro[1,3]oxazolo[3,4-a]pyridin-5-yl}-4-fluoro-6-methoxy-4′-(trifluoromethyl)biphenyl-3-yl]propanoic acid], for which the IC50 turned out to be 1630 nM.

With `COc1ccc(-c2ccc(C(=O)O)cc2C)cc1-c1ccc(N(C)C)nc1[C@@H]1C=C[C@H]2[C@@H](c3cc(C(F)(F)F)cc(C(F)(F)F)c3)OC(=O)N12` [Example 47, 3′-[2-{(1R,5S,7aS)-1-[3,5-bis(trifluoromethyl)phenyl]-3-oxo-5,7a-dihydro-1H-pyrrolo[1,2-c][1,3]oxazol-5-yl}-6-(dimethylamino)pyridin-3-yl]-4′-methoxy-2-methylbiphenyl-4-carboxylic acid], the IC50 stood at 491 nM. `COc1cc(F)c(C(C)C)cc1-c1cnc(N(C)C)nc1[C@@H]1C=C[C@H]2[C@@H](c3cc(C(F)(F)F)cc(C(F)(F)F)c3)OC(=O)N12` [Example 48, (1R,5S,7aS)-1-[3,5-bis(trifluoromethyl)phenyl]-5-{2-(dimethylamino)-5-[4-fluoro-2-methoxy-5-(1-methylethyl)phenyl]pyrimidin-4-yl}-5,7a-dihydro-1H-pyrrolo[1,2-c][1,3]oxazol-3-one]: the half-maximal inhibitory concentration (IC50) came out at 695 nM. The result for `COc1cc(F)c(C(C)C)cc1-c1cnc(N(C)C)cc1[C@@H]1C=C[C@H]2[C@@H](c3cc(C(F)(F)F)cc(C(F)(F)F)c3)OC(=O)N12` [Example 49, (1R,5S,7aS)-1-[3,5-bis(trifluoromethyl)phenyl]-5-{2-(dimethylamino)-5-[4-fluoro-2-methoxy-5-(1-methylethyl)phenyl]pyridin-4-yl}-5,7a-dihydro-1H-pyrrolo[1,2-c][1,3]oxazol-3-one] reads 438 nM; that for `COc1cc(F)c(-c2ccc(C(=O)O)cc2C)cc1-c1ccc(C(F)(F)F)cc1[C@@H]1C=C[C@H]2[C@@H](c3cc(C(F)(F)F)cc(C(F)(F)F)c3)OC(=O)N12` [Example 50, 2″-{(1R,5S,7aS)-1-[3,5-bis(trifluoromethyl)phenyl]-3-oxo-5,7a-dihydro-1H-pyrrolo[1,2-c][1,3]oxazol-5-yl}-6′-fluoro-4′-methoxy-2-methyl-4″- (trifluoromethyl)-1,1′:3′,1″- terphenyl-4-carboxylic acid], 47.9 nM.
